Reference: PMC2365101, “Anti-Inflammatory Activity of (Polyphenolic)-Sulfonates and Their Sodium Salts in Rodents” (Metal-Based Drugs, 1998)

How the values were obtained:
[1] = tested on: RPMI 1788 leukocytes adhesion to L929 fibroblasts; assay: Adhesion of human leukocytes RPMI-1788 to confluent L929 fibroblasts; assay type: cell-based; details: for Adhesion, Percent of Control: N=6
[2] = tested on: IL-1 release from P388D1 macrophages; assay: IL-1 release from P388D1 macrophages (L929 bioassay); assay type: cell-based, mouse; details: 5 μM, over 18 hours, N=6
[3] = target: T1, IL-2 high affinity receptor on HUT78 T lymphoma cell membrane (Homo sapiens, UniProt P01589+P14784); assay: 125I-IL-2 high affinity binding to HuT78 T lymphoma cells; details: for 125I-IL-2 binding, Percent of Control: N=6; for reduction of IL-2 high affinity binding: 5 hr
T1 construct: host or cells: HuT78 T lymphoma cells
T1 sequence (P01589 22-272): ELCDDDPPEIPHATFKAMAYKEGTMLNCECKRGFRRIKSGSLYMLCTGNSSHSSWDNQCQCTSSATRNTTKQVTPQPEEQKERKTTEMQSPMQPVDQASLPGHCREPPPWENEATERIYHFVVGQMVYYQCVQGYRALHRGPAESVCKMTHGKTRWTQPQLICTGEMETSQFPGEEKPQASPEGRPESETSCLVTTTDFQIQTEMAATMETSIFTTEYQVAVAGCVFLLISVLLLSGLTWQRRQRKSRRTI
T1 sequence (P14784 27-551): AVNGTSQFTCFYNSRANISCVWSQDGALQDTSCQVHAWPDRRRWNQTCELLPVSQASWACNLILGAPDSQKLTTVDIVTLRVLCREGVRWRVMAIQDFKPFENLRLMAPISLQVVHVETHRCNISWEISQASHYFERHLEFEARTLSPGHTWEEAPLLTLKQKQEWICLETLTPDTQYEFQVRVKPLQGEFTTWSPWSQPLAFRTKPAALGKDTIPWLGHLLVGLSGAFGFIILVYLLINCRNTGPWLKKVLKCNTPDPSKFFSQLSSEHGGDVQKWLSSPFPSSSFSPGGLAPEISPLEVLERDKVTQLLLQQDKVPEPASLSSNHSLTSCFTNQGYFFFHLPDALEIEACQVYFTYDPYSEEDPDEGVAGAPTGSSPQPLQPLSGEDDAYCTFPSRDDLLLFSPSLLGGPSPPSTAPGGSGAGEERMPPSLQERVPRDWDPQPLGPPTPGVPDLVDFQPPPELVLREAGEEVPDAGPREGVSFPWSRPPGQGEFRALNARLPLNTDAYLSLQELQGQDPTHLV

[4] = tested on: IL-1 release from P388D1 macrophages; assay: IL-1 release from P388D1 macrophages (L929 bioassay); assay type: cell-based, mouse; details: for IL-1 release, Percent of Control: over 18 hours, N=6
Source text: (§1) Few reports in the literature indicate interaction at these receptor sites other than by peptides or antibodies. […] Blocking these receptors is desirable because the entire inflammation cascade of events is triggered by the early release of TNFa and IL-1. […] Radioisotopes were obtained from New England Nuclear [Dupont, Boston, MA] and substrates and co- factors were obtained from Sigma Chemical Co. [St. Louis, MO]. […] Cell lines were obtained from American Type Culture Collection [Rockville, MD]. In Vivo Tests Anti-inflammatory screen in mice: Male CF male mice weighing 28-32g obtained from Jackson Lab. [Bar Harbor, […]] were used to screen agents at 8 or 16 mg/kg intraperitoneal [I.P.] x 2 administered 3 hr and 30 min prior to administering the irritant, according to Winter's protocol. Evaluation of the induced edema was made by injecting 2% carrageenan in 0.9% saline into the plantar region of the foot. The opposite foot injected with 0.9% isotonic saline was used as a base line. […] Salmonella abortus equi [Lot # 69F4003] […] Drugs from 2 to 16 mg/kg, I.P. were administered 2 hr prior and 2 hr post-injection of the LPS and then subsequently for every 24 hr for the length ofthe animals' lives. Deaths were recorded every 12 hr and continued for 96 hr. […] In vitro TNFa andIL-1 Measurements and Cellular Regulation IC-21 mouse macrophages were maintained in RPMI-1640 + 10% FCS + P/S. After the cells had grown to confluency, E. coli LPS at 10 Ixg/ml was added to the medium. Agents were incubated at 12.5 to 100 µM final concentration for 18 hr. The medium (100 btl) was collected for TNFCt determinations. Interleukin-1 [IL-1] release was determined using P388D1 cells which were maintained in RPMI-1640 + 10% FCS + P/S. The L929 bioassay was used to quantitate the TNF and the IL-1 levels. The L929 mouse fibroblasts were grown in DMEM + 10% FCS + P/S to confluency in 96 well plates and incubated with 100 tl ofmedium from […] or P388D cells after 18 hr. The cells were stained with 0.2% crystal violet in 20% MeOH and read at 580 nm using a Molecular Devices scanner (SOFT-max program). High Affinity Binding to Receptors on L929-106 Cells Two laCi of 125I-TNFct (human recombinant, 30 mCi/tg New England Nuclear) or 125I-IL-1 (70-120[.t Ci/lxg,New England Nuclear) was added to confluency L929 cells for 90 min or 5 hr, respectively with 25, 50 and 100 tM of the test compounds 12]. The cells were washed repeatedly with isotonic saline, pH.7.2 and aliquots counted. Prostaglandin cylcooxygenase activity Mouse J774AI macrophages maintained in Dulbecco's modified Eagle's medium + 15% FCS + P/S. Cells (5 x 106) were incubated with agents (5 to 100 ].tM final concentration) and 3H-arachidonic acid (100 Ci/mol) for 60 min at 37C in a CO2 incubator. The reaction was terminated with 2N HCI, the mixture extracted 2 X with ether, and the organic layer evaporated.

[5] = tested on: TNFα release from IC-21 macrophages; assay: TNFα release from IC-21 macrophages induced by LPS (L929 bioassay); assay type: cell-based, mouse; details: 18 hours exposure to LPS, N=6
Source text: as §1

[6] = tested on: CF1 male mice, LPS Salmonella abortus equi induced death; assay: Protection against septic shock (LPS induced endotoxic shock); assay type: in vivo; details: for Percent Survival at 52 hr: LPS 10 mg/kg, CF1 male mice, N=6; for protection from LPS induced death: 16 mg/kg
Source text: as §1

In the case of CC(=O)Oc1c2cc(S(=O)(=O)[O-])cc1Cc1cc(S(=O)(=O)[O-])cc(c1OC(C)=O)Cc1cc(S(=O)(=O)[O-])cc(c1OC(C)=O)Cc1cc(S(=O)(=O)[O-])cc(c1OC(C)=O)Cc1cc(S(=O)(=O)[O-])cc(c1OC(C)=O)Cc1cc(S(=O)(=O)[O-])cc(c1OC(C)=O)Cc1cc(S(=O)(=O)[O-])cc(c1OC(C)=O)Cc1cc(S(=O)(=O)[O-])cc(c1OC(C)=O)C2.[Na+].[Na+].[Na+].[Na+].[Na+].[Na+].[Na+].[Na+] [Compound 8], the “Adhesion, Percent of Control” value ([1]; 5 μM, 60 min) was 49 + 7% of Control, the “Adhesion, Percent of Control” value ([1]; 5 μM, 90 min) was 108+6% of Control and the “Adhesion, Percent of Control” value ([1]; 12.5 μM, 60 min) was 40+ 5% of Control. The “Adhesion, Percent of Control” value ([1]; 12.5 μM, 90 min) was 65 +6% of Control, the “Adhesion, Percent of Control” value ([1]; 25 μM, 2 Hours) was 108+4% of Control and the “Adhesion, Percent of Control” value ([1]; 25 μM, 60 min) was 41 +5% of Control. For the same compound, the “Adhesion, Percent of Control” value ([1]; 25 μM, 90 min) was 63+3% of Control, the “Adhesion, Percent of Control” value ([1]; 50 μM, 2 Hours) was 116+6% of Control and the “Adhesion, Percent of Control” value ([1]; 50 μM, 60 min) was 55+4% of Control. The “reducing the adhesion of human leukocytes” value ([1]; 5 to 50 μM, at 2 and 5 hr) was “not effective”, the “reducing significantly the adhesion of human leukocytes” value ([1]; 5 to 50 μM, at 60 and 90 min) was “effective” and the “IL-1 release, Percent of Control” value [2] was 75+ 5% of Control. The “125I-IL-2 binding, Percent of Control” value ([3]; 5 μM, 2 Hours) was 138 + 5% of Control, the “125I-IL-2 binding, Percent of Control” value ([3]; 5 μM, 5 Hours) was 85 + 5% of Control and the “125I-IL-2 binding, Percent of Control” value ([3]; 12.5 μM, 2 Hours) was 215 + 7% of Control. For the same compound, the “125I-IL-2 binding, Percent of Control” value ([3]; 12.5 μM, 5 Hours) was 78 + 4% of Control, the “125I-IL-2 binding, Percent of Control” value ([3]; 25 μM, 2 Hours) was 88 + 6% of Control and the “125I-IL-2 binding, Percent of Control” value ([3]; 25 μM, 5 Hours) was 59 + 5% of Control. The “125I-IL-2 binding, Percent of Control” value ([3]; 50 μM, 2 Hours) was 38 + 4% of Control, the “125I-IL-2 binding, Percent of Control” value ([3]; 50 μM, 5 Hours) was 55 + 6% of Control and the “reduction of IL-2 binding” value ([3]; 50 μM, 2 hr) was 62%. The “reduction of IL-2 high affinity binding” value ([3]; 50 μM) was 45%, the “IL-1 release, Percent of Control” value ([4]; 12.5 μM) was 66 + 4% of Control and the “IL-1 release, Percent of Control” value ([4]; 25 μM) was 0% of Control. The “IL-1 release, Percent of Control” value ([4]; 50 μM) was 0% of Control, the “reduction of IL-1 release” value ([4]; 25 and 50 μM, 18 hr) was > 95% and the “TNFα release, Percent of LPS Control” value ([5]; 5 μM) was 73 + 4% of LPS Control. The “TNFα release, Percent of LPS Control” value ([5]; 12.5 μM) was 66 + 4% of LPS Control, the “TNFα release, Percent of LPS Control” value ([5]; 25 μM) was 44 + 3% of LPS Control and the “TNFα release, Percent of LPS Control” value ([5]; 50 μM) was 53 +4% of LPS Control. For the same compound, the “Percent Survival at 52 hr” value ([6]; 2 mg/kg I.P.) was 67%, the “Percent Survival at 52 hr” value ([6]; 4 mg/Kg I.P.) was 67% and the “Percent Survival at 52 hr” value ([6]; 8 mg/Kg I.P.) was 67%. For the same compound, the “Percent Survival at 52 hr” value ([6]; 16 mg/Kg I.P.) was 83% and the “protection from LPS induced death” value [6] was 83%.
With “Pentosan sulfate [Pentosan polysulfate, reference compound]” the “Adhesion, Percent of Control” value ([1]; 12.5 μM, 2 Hours) was 83+5% of Control, the “Adhesion, Percent of Control” value ([1]; 12.5 μM, 5 Hours) was 82+5% of Control and the “Adhesion, Percent of Control” value ([1]; 25 μM, 2 Hours) was 116+6% of Control. For the same compound, the “Adhesion, Percent of Control” value ([1]; 25 μM, 5 Hours) was 82+6% of Control, the “Adhesion, Percent of Control” value ([1]; 50 μM, 2 Hours) was 147+6% of Control and the “125I-IL-2 binding, Percent of Control” value ([3]; 5 μM, 2 Hours) was 362 + 9% of Control. For the same compound, the “125I-IL-2 binding, Percent of Control” value ([3]; 5 μM, 5 Hours) was 148 + 5% of Control, the “125I-IL-2 binding, Percent of Control” value ([3]; 12.5 μM, 2 Hours) was 188 + 5% of Control and the “125I-IL-2 binding, Percent of Control” value ([3]; 12.5 μM, 5 Hours) was 89 + 6% of Control. The “125I-IL-2 binding, Percent of Control” value ([3]; 25 μM, 2 Hours) was 123 + 7% of Control, the “125I-IL-2 binding, Percent of Control” value ([3]; 25 μM, 5 Hours) was 81 + 6% of Control and the “125I-IL-2 binding, Percent of Control” value ([3]; 50 μM, 2 Hours) was 104 + 6% of Control. For the same compound, the “125I-IL-2 binding, Percent of Control” value ([3]; 50 μM, 5 Hours) was 55 + 4% of Control, the “reduction of IL-2 high affinity binding” value ([3]; 50 μM) was 45% and the “Percent Survival at 52 hr” value ([6]; 8 mg/Kg I.P.) was 67%. For the same compound, the “Percent Survival at 52 hr” value ([6]; 16 mg/Kg I.P.) was 83% and the “protection from LPS induced death” value [6] was 83%.
